Source: PubChem BioAssay (NCI)
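The compound was tested at five concentrations on cells cultured in 96-well plates, with a 48-hour exposure period. At the GI50, growth is halved. TGI: total growth inhibition.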

Key:
Test in all cases: NCI tumour cell line growth inhibition, 48 h
SK-MEL-5 melanoma = system: SK-MEL-5 melanoma
TK-10 renal = system: TK-10 renal
HOP-92 NSCLC = system: HOP-92 NSCLC
SF-539 CNS = system: SF-539 CNS
NCI-H460 lung = system: NCI-H460 lung
CCRF-CEM leukemia = system: CCRF-CEM leukemia
SF-268 CNS = system: SF-268 CNS
OVCAR-5 ovarian = system: OVCAR-5 ovarian
ACHN renal = system: ACHN renal
MALME-3M melanoma = system: MALME-3M melanoma

| SMILES | GI50 (SK-MEL-5 melanoma) | TGI (SK-MEL-5 melanoma) | GI50 (TK-10 renal) | TGI (TK-10 renal) | GI50 (HOP-92 NSCLC) | TGI (HOP-92 NSCLC) | GI50 (SF-539 CNS) | TGI (SF-539 CNS) | GI50 (NCI-H460 lung) | TGI (NCI-H460 lung) | GI50 (CCRF-CEM leukemia) | TGI (CCRF-CEM leukemia) | GI50 (SF-268 CNS) | TGI (SF-268 CNS) | GI50 (OVCAR-5 ovarian) | TGI (OVCAR-5 ovarian) | GI50 (ACHN renal) | TGI (ACHN renal) | GI50 (MALME-3M melanoma) | TGI (MALME-3M melanoma) |
| --- | --- | --- | --- | --- | --- | --- | --- | --- | --- | --- | --- | --- | --- | --- | --- | --- | --- | --- | --- | --- |
| COc1cc(/C=N\Nc2ccccc2)ccc1OC(=O)c1ccccc1 | 1.53 µM | 18.9 µM | 16.5 µM | 68.3 µM | 12.2 µM | > 89 µM | 0.486 µM | 2.22 µM | 1.22 µM | > 46 µM | 2.44 µM | > 100 µM | 4.54 µM | > 100 µM | 12.8 µM | > 100 µM | 0.675 µM | > 100 µM | 7.55 µM | > 100 µM |
| N#Cc1ccc2c(-c3ccnc(NC4CC4)n3)c(-c3ccc(F)cc3)nn2c1 | > 25 µM | > 25 µM | > 25 µM | > 25 µM | > 25 µM | > 25 µM | > 25 µM | > 25 µM | > 25 µM | > 25 µM | > 25 µM | > 25 µM | > 25 µM | > 25 µM | > 25 µM | > 25 µM | > 25 µM | > 25 µM | > 25 µM | > 25 µM |
| COc1ccc(/C(=C(\c2ccccc2)[N+](=O)[O-])c2ccc(OCCN3CCCC3)cc2)cc1 | 1.54 µM | 2.92 µM | 5.17 µM | 20.1 µM | 2.25 µM | 12 µM | 1.39 µM | 3.42 µM | 2.02 µM | 4.69 µM | 5.19 µM | 22.9 µM | 5.99 µM | 20 µM | 8.75 µM | 22.9 µM | 6.32 µM | 18.6 µM | 1.57 µM | 3.43 µM |
| CC/C(=C/c1ccc(OC)cc1)[N+](=O)[O-] | 1.87 µM | 3.56 µM | 1.75 µM | 3.28 µM | 1.74 µM | 3.43 µM | 1.82 µM | 3.38 µM | 2.11 µM | 4.47 µM | 1.96 µM | 5.72 µM | 3.01 µM | 10.4 µM | 2.34 µM | 6.08 µM | 1.71 µM | 3.21 µM | 1.78 µM | 3.77 µM |
| CCCCCn1sc(=O)n(Cc2ccc(CNC(=O)C(C)c3ccc(CC(C)C)cc3)cc2)c1=O (centres undefined) | 1.61 µM | 2.96 µM | 0.736 µM | 2.05 µM | 0.577 µM | 2.09 µM | 1.19 µM | 2.44 µM | 1.46 µM | 3.07 µM | 0.337 µM | – | 1.52 µM | 2.96 µM | 1.56 µM | 3.19 µM | 0.498 µM | 1.73 µM | 1.43 µM | 2.8 µM |
| Cc1ccc(C)c(N2CCN(c3ccncc3N)CC2)c1 | 11.7 µM | 24.4 µM | 16.7 µM | 49.8 µM | 12.3 µM | 46.2 µM | 15.4 µM | 56.9 µM | 13.7 µM | 31.9 µM | 21.5 µM | 94.3 µM | 24.9 µM | > 100 µM | 22.1 µM | > 100 µM | 11.9 µM | > 100 µM | 17.6 µM | 40.7 µM |
| CN(N=O)c1ccc(/C=C/c2ccnc3ccccc23)cc1 | – | > 100 µM | – | > 100 µM | – | > 100 µM | – | > 100 µM | – | > 100 µM | – | > 100 µM | – | > 100 µM | – | > 100 µM | – | > 100 µM | – | > 100 µM |
| CSCSCC(CO)NC(=O)/C=C/c1c(C)[nH]c(=O)[nH]c1=O (centres undefined) | – | > 100 µM | – | > 100 µM | – | > 100 µM | – | > 100 µM | – | > 100 µM | – | > 100 µM | – | > 100 µM | – | > 100 µM | – | > 100 µM | – | > 100 µM |
